# Source: publication PMC12117998, “First Steps toward the Design of Peptides that Influence the Intracellular Palmitoylation Machinery” (Chembiochem, 2025)
# No end group written: not given here.
# What was measured:
# MCF‐10 A breast spheroid = assay: Confocal time‐lapse imaging of spheroids; type: cell-based, human; conditions: 10‐day‐old MCF‐10 A spheroids, 10 μM CF‐labeled peptide, imaged every 45 s for 20 min, n ≥ 2 (Figure 7)
# Description: Spheroids from single MCF10‐A cells were generated for 10 days as described in ref. [66]. For further analyses, spheroids were isolated from EHS matrix through incubation in 2 mL ice‐cold cell recovery solution (BD Biosciences) for 30 min (4 °C). Next, spheroids were washed with fresh EGF‐free medium and individually picked under a stereo microscope for seeding onto 35 mm cell culture dishes with microscopic glass bottoms (Cover Slip, 24 × 24 mm, #1.5 HP, Menzel‐Gläser). Spheroids adhered to glass substrates for 15 min (RT) and were subsequently covered with 0.9 mL fresh EGF‐free growth medium.
# Live‐cell imaging was performed at 37 °C and 5% CO2 (cell incubator XL, Zeiss, Germany) with an inverse confocal laser scanning microscope (LSM880 with Airyscan detector) that used a 40x LD C‐Apochromat water immersion objective (NA 1.1, Zeiss). Before addition of peptides, control images were taken. Subsequently, peptide was added to a final concentration of 10 μM and spheroids immediately imaged every 45 s for 20 min. The observed plane was at the equatorial plane of a spheroid, where the diameter was largest. Images were taken with Fast Airyscan and subsequent processing using the ZEN 2.3 black software (Zeiss). Z‐stacks were taken right after the time series in 1 μm steps with the same microscopic settings.
# HeLa cells [1] = assay: Live‐cell fluorescence imaging of peptide uptake; type: cell-based
# Description: HeLa (40,000), MDA‐MB‐231 (30,000), or HFF1 (55,000) cells were seeded into an 8‐well ibidi. Cells were treated for 30 min with 5 μM of CF‐labeled peptide diluted in the appropriate serum‐free media. The cell nuclei were stained with the Hoechst 33342 nuclear dye for the last 10 min of the total incubation time. Afterward, cells were washed three to four times using serum‐free medium and finally, medium containing FBS was added for the microscopy. Live fluorescence microscopy analyses were performed on the LSM 980 with Airyscan 2 Inverse Confocal Laser Scanning Microscope (Carl Zeiss) on a 63X Plan‐Apochromat oil objective (NA 1.4, Zeiss) at 37 °C and 5% CO2 or on the BZ‐X810 (Keyence) using a 60X Plan‐Apochromat oil objective (NA 1.4, Keyence). Images were cropped and processed using Fiji.
# Hela cells (15,000) were seeded into a 96-well plate. Cells were treated with suitable peptide concentrations diluted in the corresponding serum-free culture medium. After 1 h peptide incubation under standard growth conditions, the positive control was either directly treated with lysis solution or the supernatant was exchanged for serum-free culture medium and the plate was incubated for further 5 h under growing conditions. The CytoTox-ONE™ Reagent was added and incubated at RT for 10 minutes. Finally, the Stop Solution was added and the fluorescence was measured at 595 nm (λex = 550 nm) on an infinite M200 plate reader (Tecan) and normalized to the positive control cells.
# Red blood cells (RBCs) were washed three times in PBS by centrifug ing at 4 °C and 3,000 x g for 5 min and diluted to 5% in PBS. The desired peptide concentrations diluted in PBS were added into a 96-well plate. Next, 5% RBCs in PBS were added into the wells and incubated for 24 h at 37 °C and 5% CO2. As a positive control, RBCs were mixed with 10% Triton X-100 in PBS. […] Lastly, the absorption (λ=560 nm) was measured on the infinite M200 plate reader (Tecan). For the evaluation, the measured absorption of the Triton-X-100 treatment was set to a hemolysis rate […]
# HeLa cells [2] = assay: Cellular uptake by flow cytometry; type: cell-based
# Description: HeLa (90,000), MDA‐MB‐231 (120,000), and HFF‐1 (125,000) cells were seeded into a 24‐well plate. Cells were treated with the desired concentration of CF‐labeled peptide diluted in the appropriate serum‐free medium for 30 min at 37 °C and 5% CO2. Afterward, cells were washed once with PBS, detached from the plate using indicator‐free trypsin/EDTA and resuspended in indicator‐free culture medium. The cell mixture was measured on the Guava easyCyte flow cytometer (Merck) using the GRN‐B (520/30) detector.
# CMA was synthesized and kindly provided by Azizi et al.^[ [33] ^] Cells were either treated with 20 μM CMA diluted in serum‐free media or 0.1% DMSO diluted in serum‐free media for 6 h at 37 °C with 5% CO2. Next, cells were washed once with serum‐free medium and 5 μM CF‐labeled peptides diluted in serum‐free medium were incubated for 30 min. Control cells were only treated with dimethylsulfoxide (DMSO) or 20 μM CMA.
# For the preincubation assay, cells were either treated with 5 μM DC‐2 diluted in serum‐free medium or only serum‐free medium for 30 min at 37 °C and 5% CO2. Afterward, cells were washed once with serum‐free medium and treated with 5 μM CF‐labeled DC‐2 for 30 min at 37 °C and 5% CO2.
# To block cell surface thiols, cells were incubated with either serum‐free medium or 1.2 mM 5,5′‐dithiobis‐(2‐nitrobenzoic acid) (Ellman's reagent, DTNB) diluted in serum‐free medium for 5 min. Next, untreated cells were treated with 1 μM of CF‐labeled DC‐2 or DC‐2dis diluted in serum‐free medium and DTNB‐pretreated cells with 1 μM of CF‐labeled DC‐2 or DC‐2dis and 1.2 mM DTNB in serum‐free medium for 30 min at 37 °C and 5% CO2 as described by Aubry et al.^[ [47] ^]
substance,measurement,setting,value
"GLRKRLRKFRNKKMDHHCPW-NH2 [DC‐2, CPP sC18* fused to the DHHC motif derived from ZDHHC2/3/6/7/15/16/20]",infiltration of basement membrane (BM)‐covered spheroids,MCF‐10 A breast spheroid,efficiently surpassed the BM and translocated into many cells
same,time‐lapse cellular uptake,"HeLa cells [1]; 5 μM CF-DC-2, imaged every 10 sec for 30 min (Video 1)",rapid cellular uptake
same,intracellular uptake pattern,"HeLa cells [1]; 30 min, 5 μM CF‐labeled peptides, confocal laser scanning microscopy (Figure 3G)",diffuse cytosolic pattern
same,effect of blocking cell surface thiols (DTNB) on cellular uptake,"HeLa cells [2]; 5 min 1.2 mM DTNB, then 1 μM CF‐labeled peptide with DTNB 30 min, flow cytometry, n = 3 (Figure S8C)",no significant difference
same,effect of pretreatment with unlabeled DC‐2 on peptide uptake,"HeLa cells [2]; 30 min 5 μM unlabeled DC‐2, then 30 min 5 μM CF‐DC‐2, flow cytometry, n = 3 (Figure S5E)",no significant difference in the quantity of peptide uptake
same,cellular uptake in medium lacking L‐cystine,"HeLa cells [2]; 30 min, 5 µM CF-DC-2, flow cytometry, n = 3 (Figure S8B)",slightly increased
same,cellular uptake (in words),"HeLa cells [2]; 30 min, 5 μM CF‐labeled peptides, serum-free medium, 37 °C, flow cytometry, n ≥ 3 (Figure 3D, 5C)",internalized to a higher extent compared to DC‐4
